Measured values published in patent publication US20150105252A1, “SUBSTITUTED PYRAZOLES AS HERBICIDES” (E I DU PONT DE NEMOURS AND COMPANY, priority 2013, published 2015).

Experiments:
windgrass [1] = assay: Test D postemergence; assay type: in vivo, Apera spica-venti; conditions: scale 0 to 100
Text: (§1) Seeds of plant species selected from bluegrass (annual bluegrass, Poa annua), blackgrass (Alopecurus myosuroides), canarygrass (littleseed canarygrass, Phalaris minor), chickweed (common chickweed, Stellaria media), galium (catchweed bedstraw, Galium aparine), bromegrass, downy (downy bromegrass, Bromus tectorum), field poppy (Papaver rhoeas), field violet (Viola arvensis), foxtail, green (green foxtail, Setaria viridis), deadnettle (henbit deadnettle, Lamium amplexicaule), ryegrass, Italian (Italian ryegrass, Lolium multiflorum), kochia (Kochia scoparia), lambsquarters (Chenopodium album), oilseed rape (Brassica napus), pigweed (redroot pigweed, Amaranthus retroflexus), chamomile (scentless chamomile, Matricaria inodora), speedwell (bird's-eye speedwell, Veronica persica), barley, spring (spring barley, Hordeum vulgare), wheat, spring (spring wheat, Triticum aestivum), buckwheat, wild (wild buckwheat, Polygonum convolvulus), mustard, wild (wild mustard, Sinapis arvensis), oat, wild (wild oat, Avena fatua), radish, wild (wild radish, Raphanus raphanistrum), windgrass (Apera spica-venti), Russian thistle (Salsola kali), barley, winter (winter barley, Hordeum vulgare), and wheat, winter (winter wheat, Triticum aestivum) were planted into a silt loam soil and treated preemergence with test chemicals formulated in a non-phytotoxic solvent mixture which included a surfactant.
(§2) At the same time, these species were planted in pots containing Redi-Earth® planting medium (Scotts Company, 14111 Scottslawn Road, Marysville, Ohio 43041) comprising spaghnum peat moss, vermiculite, wetting agent and starter nutrients and treated with postemergence applications of the test chemicals formulated in the same manner. Plants ranged in height from 2 to 18 cm (1- to 4-leaf stage). Treated plants and controls were maintained in a controlled growth environment for 14 to 21 days after which time all species were compared to controls and visually evaluated. Plant response ratings, summarized in Table D, are based on a scale of 0 to 100 where 0 is no effect and 100 is complete control. A dash (-) response means no test result.

radish, wild = assay: Test D postemergence; assay type: in vivo, Raphanus raphanistrum; conditions: scale 0 to 100
Text: as §1, §2

galium = assay: Test D preemergence; assay type: in vivo, Galium aparine; conditions: for Plant response rating, Galium: Preemergence, scale 0 to 100
Text: as §1, §2

field poppy [2] = assay: Test D preemergence; assay type: in vivo, Papaver rhoeas; conditions: for Plant response rating, Field Poppy: Preemergence, scale 0 to 100
Text: as §1, §2

wheat, spring = assay: Test D postemergence; assay type: in vivo, Triticum aestivum; conditions: scale 0 to 100
Text: as §1, §2

wheat, winter = assay: Test D postemergence; assay type: in vivo, Triticum aestivum; conditions: scale 0 to 100
Text: as §1, §2

oilseed rape = assay: Test D postemergence; assay type: in vivo, Brassica napus; conditions: scale 0 to 100
Text: as §1, §2

field violet = assay: Test D postemergence; assay type: in vivo, Viola arvensis; conditions: scale 0 to 100
Text: as §1, §2

ryegrass, Italian = assay: Test D preemergence; assay type: in vivo, Lolium multiflorum; conditions: for Plant response rating, Ryegrass, Italian: Preemergence, scale 0 to 100
Text: as §1, §2

windgrass [3] = assay: Test D preemergence; assay type: in vivo, Apera spica-venti; conditions: for Plant response rating, Windgrass: Preemergence, scale 0 to 100
Text: as §1, §2

chamomile = assay: Test D postemergence; assay type: in vivo, Matricaria inodora; conditions: scale 0 to 100
Text: as §1, §2

canarygrass = assay: Test D preemergence; assay type: in vivo, Phalaris minor; conditions: for Plant response rating, Canarygrass: Preemergence, scale 0 to 100
Text: as §1, §2

buckwheat, wild = assay: Test D preemergence; assay type: in vivo, Polygonum convolvulus; conditions: for Plant response rating, Buckwheat, Wild: Preemergence, scale 0 to 100
Text: as §1, §2

field poppy [4] = assay: Test D postemergence; assay type: in vivo, Papaver rhoeas; conditions: scale 0 to 100
Text: as §1, §2

barley, winter = assay: Test D postemergence; assay type: in vivo, Hordeum vulgare; conditions: scale 0 to 100
Text: as §1, §2

barley, spring = assay: Test D postemergence; assay type: in vivo, Hordeum vulgare; conditions: scale 0 to 100
Text: as §1, §2

[5] = 16 g ai/ha, taken as preemergence

CCc1cc(C(=O)NOC(C)C)nn1Cc1cccc(OC(F)(F)F)c1 [Compound 70]
Plant response rating, Windgrass (windgrass [1]; Postemergence, 16 g ai/ha): 0 | Windgrass plant response rating (windgrass [1]; Postemergence, 31 g ai/ha): 0 | Windgrass plant response rating (windgrass [1]; Postemergence, 125 g ai/ha): 0 | Windgrass plant response rating (windgrass [1]; Postemergence, 250 g ai/ha): 0 | Windgrass plant response rating (windgrass [1]; postemergence, 62 g ai/ha): 0 | Plant response rating, Radish, Wild (radish, wild; Postemergence, 16 g ai/ha): 10 | Radish, Wild plant response rating (radish, wild; Postemergence, 31 g ai/ha): 10 | Radish, Wild plant response rating (radish, wild; Postemergence, 125 g ai/ha): 50 | Radish, Wild plant response rating (radish, wild; Postemergence, 250 g ai/ha): 85 | Radish, Wild plant response rating (radish, wild; postemergence, 62 g ai/ha): 10 | Plant response rating (scale 0 to 100), Galium (galium; [5]): 0 | Plant response rating, Galium (galium; 31 g ai/ha): 0 | Plant response rating, Galium (galium; 62 g ai/ha): 10 | Plant response rating, Galium (galium; 250 g ai/ha): 40 | Plant response rating (scale 0 to 100), Field Poppy (field poppy [2]; [5]): 20 | Plant response rating, Field Poppy (field poppy [2]; 31 g ai/ha): 100 | Plant response rating, Field Poppy (field poppy [2]; 62 g ai/ha): 100 | Plant response rating, Field Poppy (field poppy [2]; 125 g ai/ha): 90 | Plant response rating, Field Poppy (field poppy [2]; 250 g ai/ha): 100 | Plant response rating, Wheat, Spring (wheat, spring; Postemergence, 16 g ai/ha): 0 | Wheat, Spring plant response rating (wheat, spring; Postemergence, 31 g ai/ha): 5 | Wheat, Spring plant response rating (wheat, spring; Postemergence, 125 g ai/ha): 5 | Wheat, Spring plant response rating (wheat, spring; Postemergence, 250 g ai/ha): 10 | Wheat, Spring plant response rating (wheat, spring; postemergence, 62 g ai/ha): 5 | Plant response rating, Wheat, Winter (wheat, winter; Postemergence, 16 g ai/ha): 0 | Wheat, Winter plant response rating (wheat, winter; Postemergence, 31 g ai/ha): 0 | Wheat, Winter plant response rating (wheat, winter; Postemergence, 125 g ai/ha): 5 | Wheat, Winter plant response rating (wheat, winter; Postemergence, 250 g ai/ha): 10 | Wheat, Winter plant response rating (wheat, winter; postemergence, 62 g ai/ha): 5 | Plant response rating, Oilseed Rape (oilseed rape; Postemergence, 16 g ai/ha): 20 | Oilseed Rape plant response rating (oilseed rape; Postemergence, 31 g ai/ha): 40 | Oilseed Rape plant response rating (oilseed rape; Postemergence, 125 g ai/ha): 60 | Oilseed Rape plant response rating (oilseed rape; Postemergence, 250 g ai/ha): 80 | Oilseed Rape plant response rating (oilseed rape; postemergence, 62 g ai/ha): 50 | Plant response rating, Field Violet (field violet; Postemergence, 16 g ai/ha): 20 | Field Violet plant response rating (field violet; Postemergence, 31 g ai/ha): 40 | Field Violet plant response rating (field violet; Postemergence, 125 g ai/ha): 75 | Field Violet plant response rating (field violet; Postemergence, 250 g ai/ha): 75 | Field Violet plant response rating (field violet; postemergence, 62 g ai/ha): 40 | Plant response rating (scale 0 to 100), Ryegrass, Italian (ryegrass, Italian; [5]): 0 | Plant response rating, Ryegrass, Italian (ryegrass, Italian; 31 g ai/ha): 0 | Plant response rating, Ryegrass, Italian (ryegrass, Italian; 62 g ai/ha): 0 | Plant response rating, Ryegrass, Italian (ryegrass, Italian; 125 g ai/ha): 20 | Plant response rating, Ryegrass, Italian (ryegrass, Italian; 250 g ai/ha): 75 | Plant response rating (scale 0 to 100), Windgrass (windgrass [3]; [5]): 0 | Plant response rating, Windgrass (windgrass [3]; 31 g ai/ha): 0 | Plant response rating, Windgrass (windgrass [3]; 62 g ai/ha): 0 | Plant response rating, Windgrass (windgrass [3]; 125 g ai/ha): 0 | Plant response rating, Windgrass (windgrass [3]; 250 g ai/ha): 0 | Plant response rating, Chamomile (chamomile; Postemergence, 16 g ai/ha): 10 | Chamomile plant response rating (chamomile; Postemergence, 31 g ai/ha): 30 | Chamomile plant response rating (chamomile; Postemergence, 125 g ai/ha): 40 | Chamomile plant response rating (chamomile; Postemergence, 250 g ai/ha): 50 | Chamomile plant response rating (chamomile; postemergence, 62 g ai/ha): 30 | Plant response rating (scale 0 to 100), Canarygrass (canarygrass; [5]): 0 | Plant response rating, Canarygrass (canarygrass; 31 g ai/ha): 0 | Plant response rating, Canarygrass (canarygrass; 62 g ai/ha): 0 | Plant response rating, Canarygrass (canarygrass; 125 g ai/ha): 20 | Plant response rating, Canarygrass (canarygrass; 250 g ai/ha): 75 | Plant response rating (scale 0 to 100), Buckwheat, Wild (buckwheat, wild; [5]): 0 | Plant response rating, Buckwheat, Wild (buckwheat, wild; 31 g ai/ha): 0 | Plant response rating, Buckwheat, Wild (buckwheat, wild; 62 g ai/ha): 0 | Plant response rating, Buckwheat, Wild (buckwheat, wild; 125 g ai/ha): 0 | Plant response rating, Buckwheat, Wild (buckwheat, wild; 250 g ai/ha): 100 | Plant response rating, Field Poppy (field poppy [4]; Postemergence, 16 g ai/ha): 20 | Field Poppy plant response rating (field poppy [4]; Postemergence, 31 g ai/ha): 70 | Field Poppy plant response rating (field poppy [4]; Postemergence, 125 g ai/ha): 80 | Field Poppy plant response rating (field poppy [4]; Postemergence, 250 g ai/ha): 100 | Field Poppy plant response rating (field poppy [4]; postemergence, 62 g ai/ha): 75 | Barley, Winter plant response rating (barley, winter; Postemergence, 16 g ai/ha): 0 | Barley, Winter plant response rating (barley, winter; Postemergence, 31 g ai/ha): 0 | Barley, Winter plant response rating (barley, winter; Postemergence, 125 g ai/ha): 5 | Barley, Winter plant response rating (barley, winter; Postemergence, 250 g ai/ha): 5 | Barley, Winter plant response rating (barley, winter; postemergence, 62 g ai/ha): 5 | Barley, Spring plant response rating (barley, spring; Postemergence, 16 g ai/ha): 0 | Barley, Spring plant response rating (barley, spring; Postemergence, 31 g ai/ha): 0 | Barley, Spring plant response rating (barley, spring; Postemergence, 125 g ai/ha): 5 | Barley, Spring plant response rating (barley, spring; Postemergence, 250 g ai/ha): 5 | Barley, Spring plant response rating (barley, spring; postemergence, 62 g ai/ha): 0
